According to patent publication US8288371B2, “Ortho pyrrolidine, benzyl-substituted heterocycle CCR1 antagonists for autoimmune diseases and inflammation” (Pharmacopeia, LLC, priority 2007, dated 2012):

Each compound was assayed against T1, human CCR1 (Homo sapiens, UniProt P32246) (assay: CCR1 binding protocol (SPA, [125I]-MIP-1α displacement)). Details: cell membrane expressing human CCR1, 0.1 nM [125I]-MIP-1α, 4 hours at ambient temperature; read-out: Relative potency (IC50).
T1 sequence (P32246 1-355): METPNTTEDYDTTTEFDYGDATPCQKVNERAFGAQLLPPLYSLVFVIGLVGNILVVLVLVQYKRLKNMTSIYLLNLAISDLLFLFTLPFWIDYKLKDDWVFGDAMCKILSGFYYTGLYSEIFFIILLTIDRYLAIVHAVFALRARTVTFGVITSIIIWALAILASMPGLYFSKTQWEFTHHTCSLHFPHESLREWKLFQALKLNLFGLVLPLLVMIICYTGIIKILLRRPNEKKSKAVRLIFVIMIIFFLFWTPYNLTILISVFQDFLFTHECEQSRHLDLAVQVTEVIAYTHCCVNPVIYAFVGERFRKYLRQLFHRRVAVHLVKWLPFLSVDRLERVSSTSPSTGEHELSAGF
Description: The following protocol was used to test compounds for CCR1 binding. A mixture, including scintillation proximity assay (SPA) beads and cell membrane expressing human CCR1, was prepared in assay buffer (130 mM NaCl+5 mM KCl+1 mM MnCl+50 mM Tris HCl at pH 7.4+0.1% bovine serum albumin (BSA)) at the ratio of 50 μg/ml membrane to 10 mg/ml SPA beads. 10 μl of the mixture was transferred to each well of a 384-well assay plate yielding a final concentration for the membrane and SPA beads of 0.5 μg/well and 100 μg/well, respectively
To generate different concentrations of the test compound, compound stocks were prepared using 10 step ½ log dilutions with a high concentration of 10 mM in DMSO and the lowest concentration being DMSO only without compound. An intermediate 40× dilution was then prepared in the assay buffer. The compound was then transferred at 10 μl/well to the assay plate. 0.5 nM [^125 I]-labeled macrophage inflammatory protein-1α (MIP-1α, an endogenous CCR1 ligand) in the assay buffer was transferred to the assay plate at 5 μl/well, for a final ligand concentration of 0.1 nM. The assay plate was then centrifuged at 2500 rpm for 2 minutes and incubated for 4 hours at ambient temperature, at which time the raw data was recorded using microbeta. The IC50 was then calculated using Graphpad Prism.

First: CC[C@H](NC(=O)N1CCC[C@@H]1c1nncn1Cc1ccc(Cl)cc1)c1cc2ccccc2o1 [Compound 116]
Second: Cc1nnc([C@H]2CCCN2C(=O)N[C@@H](C)c2ccccc2)n1Cc1ccc(Cl)cc1 [Compound 227]
The IC50 of the first is lower: under 50 nM for the first, 50 to 500 nM for the second.

`CC[C@H](NC(=O)N1CCC[C@@H]1c1nnc(C)n1Cc1ccc(Cl)cc1)c1c(C)noc1C` [Compound 214] and `CCc1noc(C)c1NC(=O)N1CCC[C@@H]1c1nnc(C)n1Cc1ccc(Cl)cc1` [Compound 290] cannot be ordered by IC50: under 50 nM for the first, under 50 nM for the second.

`Cc1nnc([C@H]2CCCN2C(=O)NCC2CCCN(S(C)(=O)=O)C2)n1Cc1ccc(Cl)cc1` (stereo partly shown) [Compound 601] and `Cc1nnc([C@H]2CCCN2C(=O)NCC2CCN(S(C)(=O)=O)C2)n1Cc1ccc(Cl)cc1` (stereo partly shown) [Compound 593] fall in the same range of IC50: 50 to 500 nM for the first, 50 to 500 nM for the second.

First: Cc1nnc([C@H]2CCCN2C(=O)NC2CC(C)(C)Oc3cc(C(F)(F)F)ccc32)n1Cc1ccc(Cl)cc1 (stereo partly shown) [Compound 272]
Second: Cc1nnc([C@H]2CCCN2C(=O)N[C@H]2CCOc3c2cccc3C(F)(F)F)n1Cc1ccc(Cl)cc1 [Compound 199]
The IC50 of the first is higher: 50 to 500 nM for the first, under 50 nM for the second. The second is the more potent here.

`Cc1nnc([C@H]2CCCN2C(=O)N[C@@H](C)C(C)C)n1Cc1ccc(Cl)cc1` [Compound 343] and `Cc1nnc([C@H]2CCCN2C(=O)N[C@H](C)c2cccnc2)n1Cc1ccc(Cl)cc1` [Compound 140] fall in the same range of IC50: 50 to 500 nM for the first, 50 to 500 nM for the second.

`Cc1cc(C(N)=O)ccc1NC(=O)N1CCC[C@@H]1c1nnc(C)n1Cc1ccc(Cl)cc1` [Compound 300] and `Cc1cc(C(=O)O)ccc1NC(=O)N1CCC[C@@H]1c1nnc(C)n1Cc1ccc(Cl)cc1` [Compound 240] fall in the same range of IC50: 50 to 500 nM for the first, 50 to 500 nM for the second.

`COCc1nnc([C@H]2CCCN2C(=O)NCc2ccc(Cl)cc2Cl)n1Cc1ccc(Cl)cc1` [Compound 462] and `COCc1nnc([C@H]2CCCN2C(=O)N[C@@H](C)c2ccc(Cl)cc2)n1Cc1ccc(Cl)cc1` [Compound 463] fall in the same range of IC50: 50 to 500 nM for the first, 50 to 500 nM for the second.

First: Cc1nc(C(F)(F)F)ccc1NC(=O)N1CC2CC2[C@@H]1c1nnc(C)n1Cc1ccc(Cl)cc1 (stereo partly shown) [Compound 563]
Second: Cc1noc(C)c1NC(=O)N1CC2CC2[C@@H]1c1nnc(C)n1Cc1ccc(Cl)cc1 (stereo partly shown) [Compound 564]
The IC50 of the first is lower: under 50 nM for the first, 50 to 500 nM for the second.

`Cc1nnc([C@H]2CCCN2C(=O)Nc2ccc(C(F)(F)F)[n+]([O-])c2C)n1Cc1ccc(Cl)cc1` [Compound 519] and `Cc1c(NC(=O)N2CCC[C@@H]2c2nnc(C)n2Cc2ccc(Cl)cc2)ccc(C#N)c1C(F)(F)F` [Compound 527] cannot be ordered by IC50: under 50 nM for the first, under 50 nM for the second.

`Cc1nnc([C@H]2CCCN2C(=O)NC(c2ccccc2)c2ccc(Cl)cc2)n1Cc1ccc(Cl)cc1` (stereo partly shown) [Compound 129] and `Cc1nnc([C@H]2CCCN2C(=O)N[C@@H](C)c2ccc(F)cc2)n1Cc1ccc(Cl)cc1` [Compound 218] cannot be ordered by IC50: under 50 nM for the first, under 50 nM for the second.

Compared with `Cc1nnc([C@H]2CCCN2C(=O)N[C@H]2CCc3ccccc32)n1Cc1ccc(Cl)cc1` [Compound 155], `O=C(N[C@H]1CCCc2ccccc21)N1CCC[C@@H]1c1nnnn1Cc1ccc(Cl)cc1` [Compound 48] is lower in IC50: 50 to 500 nM for the first, under 50 nM for the second. The second is the more potent here.

First: COC1CCC(NC(=O)N2CCC[C@@H]2c2nnc(C)n2Cc2ccc(Cl)cc2)CC1 (stereo partly shown) [Compound 292]
Second: CCOC1CCC(NC(=O)N2CCC[C@@H]2c2nnc(C)n2Cc2ccc(Cl)cc2)CC1 (stereo partly shown) [Compound 305]
The IC50 of the first is lower: 50 to 500 nM for the first, 500 to 5000 nM for the second. The first is the more potent here.

`Cc1noc(C)c1N/C(=N/C#N)N1CCC[C@@H]1c1nnc(C)n1Cc1ccc(Cl)cc1` [Compound 319] and `Cc1noc(C)c1NC(=O)N1C[C@@H](O)C[C@@H]1c1nnc(C)n1Cc1ccc(Cl)cc1` [Compound 445] fall in the same range of IC50: 50 to 500 nM for the first, 50 to 500 nM for the second.

First: NC(=O)c1nnc([C@H]2CCCN2C(=O)Nc2ccc(Cl)cc2F)n1Cc1ccc(Cl)cc1 [Compound 490]
Second: Cc1nnc([C@H]2CCCN2C(=O)Nc2ccc(S(N)(=O)=O)cc2Cl)n1Cc1ccc(Cl)cc1 [Compound 486]
The IC50 of the first is higher: 500 to 5000 nM for the first, under 50 nM for the second.

`Cc1ncc(Cc2ccc(Cl)cc2)c([C@H]2CCCN2C(=O)Nc2c(C)cc(Cl)cc2C)n1` [Compound 18] and `Cc1ncc(Cc2ccc(Cl)cc2)c([C@H]2CCCN2C(=O)Nc2c(C)cc(C(F)(F)F)cc2C)n1` [Compound 16] fall in the same range of IC50: 50 to 500 nM for the first, 50 to 500 nM for the second.

`Cc1nnc([C@H]2CCCN2C(=O)NC2(c3ccc(C(F)(F)F)cc3)CC2)n1Cc1ccc(Cl)cc1` [Compound 263] and `Cc1nnc([C@H]2CCCN2C(=O)NC2(c3ccc(F)cc3)CC2)n1Cc1ccc(Cl)cc1` [Compound 270] cannot be ordered by IC50: under 50 nM for the first, under 50 nM for the second.

First: Cc1nnc([C@H]2C[C@H](O)CN2C(=O)NCc2ccc(Cl)cc2Cl)n1Cc1ccc(Cl)cc1 [Compound 470]
Second: Cc1nnc([C@H]2C[C@H](O)CN2C(=O)Nc2ccc(Cl)nc2Cl)n1Cc1ccc(Cl)cc1 [Compound 492]
The IC50 of the first is lower: under 50 nM for the first, 50 to 500 nM for the second.

First: CC(=O)O[C@@H]1C[C@H](c2ncnn2Cc2ccc(Cl)cc2)N(C(=O)Nc2ccc(Cl)cc2F)C1 [Compound 485]
Second: O=C(NC1CCCOc2ccc(Cl)cc21)N1CCC[C@@H]1c1ncnn1Cc1ccc(Cl)cc1 (stereo partly shown) [Compound 84]
The IC50 of the first is higher: 500 to 5000 nM for the first, 50 to 500 nM for the second. The second is the more potent here.

First: Cc1ncnc([C@H]2CCCN2C(=O)Nc2c(C)noc2C)c1Cc1ccc(Cl)cc1 [Compound 19]
Second: Cc1noc(C(F)(F)F)c1NC(=O)N1CCC[C@@H]1c1nnc(C)n1Cc1ccc(Cl)cc1 [Compound 616]
The IC50 of the first is higher: 50 to 500 nM for the first, under 50 nM for the second.

`CC(=O)N1CCC(CNC(=O)N2CCC[C@@H]2c2nnc(C)n2Cc2ccc(Cl)cc2)CC1` [Compound 598] and `CC(=O)N1CCC(CNC(=O)N2CCC[C@@H]2c2nnc(C)n2Cc2ccc(Cl)cc2)C1` (stereo partly shown) [Compound 592] fall in the same range of IC50: 50 to 500 nM for the first, 50 to 500 nM for the second.

First: Cc1cc(C)c(NC(=O)N2CCC[C@@H]2c2nnc(C)n2Cc2ccc(Cl)cc2)c(C(=O)O)c1 [Compound 254]
Second: Cc1cc(C)c(NC(=O)N2CCC[C@@H]2c2nnc(C)n2Cc2ccc(Cl)cc2)c(C)c1 [Compound 150]
The IC50 of the first is higher: 500 to 5000 nM for the first, under 50 nM for the second.

First: CNC(=O)c1ccc(Cl)c(NC(=O)N2CCC[C@@H]2c2nnc(C)n2Cc2ccc(Cl)cc2)c1 [Compound 315]
Second: CNC(=O)c1ccc(C(F)(F)F)c(NC(=O)N2CCC[C@@H]2c2nnc(C)n2Cc2ccc(Cl)cc2)c1 [Compound 359]
The IC50 of the first is higher: 50 to 500 nM for the first, under 50 nM for the second. The second is the more potent here.

First: Cc1nnc([C@H]2C[C@H](O)CN2C(=O)N[C@H]2CCOc3cc(C(F)(F)F)ccc32)n1Cc1ccc(Cl)cc1 [Compound 432]
Second: O=C(NC1CCc2cc(C(F)(F)F)ccc21)N1CCC[C@@H]1c1ncnn1Cc1ccc(Cl)cc1 (stereo partly shown) [Compound 86]
The IC50 of the first is lower: under 50 nM for the first, 50 to 500 nM for the second.

`Cc1nnc([C@H]2CCCN2C(=O)NCCC2CCCCO2)n1Cc1ccc(Cl)cc1` (stereo partly shown) [Compound 602] and `Cc1cnccc1NC(=O)N1CCC[C@@H]1c1nnc(C)n1Cc1ccc(Cl)cc1` [Compound 299] fall in the same range of IC50: 50 to 500 nM for the first, 50 to 500 nM for the second.

`Cc1cc(C(F)(F)F)cc(C)c1NC(=O)N1CCC[C@@H]1c1nnc(C(C)C)n1Cc1ccc(Cl)cc1` [Compound 118] and `Cc1nnc([C@H]2CCCN2C(=O)Cc2cc(F)cc(C(F)(F)F)c2)n1Cc1ccc(Cl)cc1` [Compound 509] fall in the same range of IC50: 50 to 500 nM for the first, 50 to 500 nM for the second.

`Cc1noc(-c2ccccc2)c1NC(=O)N1CCC[C@@H]1c1nnc(CO)n1Cc1ccc(Cl)cc1` [Compound 309] and `Cc1noc(-c2ccccc2)c1NC(=O)N1CCC[C@@H]1c1nnnn1Cc1ccc(Cl)cc1` [Compound 51] cannot be ordered by IC50: under 50 nM for the first, under 50 nM for the second.

`Cc1nnc([C@H]2CCCN2C(=O)Nc2ccc(Cl)nc2Cl)n1Cc1ccc(Cl)cc1` [Compound 395] and `Cc1nnc([C@H]2CCCN2C(=O)Nc2ccc(Cl)c(C#N)c2)n1Cc1ccc(Cl)cc1` [Compound 487] cannot be ordered by IC50: under 50 nM for the first, under 50 nM for the second.

Compared with `CCc1nnc([C@H]2CCCN2C(=O)Nc2ccc(C(F)(F)F)nc2C)n1Cc1ccc(Cl)cc1` [Compound 584], `Cc1nc(C(F)(F)F)ccc1NC(=O)N1CCC[C@@H]1c1nnc(C)n1Cc1cccc(Cl)c1` [Compound 538] is higher in IC50: under 50 nM for the first, 500 to 5000 nM for the second. The first is the more potent here.

Compared with `Cc1noc(-c2ccccc2)c1NC(=O)N1CCC[C@@H]1c1oncc1Cc1ccc(Cl)cc1` [Compound 2], `Cc1onc(-c2ccccc2)c1NC(=O)N1CCC[C@@H]1c1nnnn1Cc1ccc(Cl)cc1` [Compound 52] is lower in IC50: 50 to 500 nM for the first, under 50 nM for the second.

`CC1(C)CC(NC(=O)N2CCC[C@@H]2c2ncnn2Cc2ccc(Cl)cc2)c2ccccc2O1` (stereo partly shown) [Compound 85] and `O=C(NC1(c2ccc(C(F)(F)F)cc2)CC1)N1CCC[C@@H]1c1ncnn1Cc1ccc(Cl)cc1` [Compound 98] fall in the same range of IC50: 50 to 500 nM for the first, 50 to 500 nM for the second.

`CNC(=O)c1cccc(C)c1NC(=O)N1CCC[C@@H]1c1nnc(C)n1Cc1ccc(Cl)cc1` [Compound 212] and `Cc1noc(C)c1NC(=O)N1CC(F)C[C@@H]1c1nnc(C)n1Cc1ccc(Cl)cc1` (stereo partly shown) [Compound 575] cannot be ordered by IC50: under 50 nM for the first, under 50 nM for the second.

Compared with `O=C(Nc1ccc(C(F)(F)F)cc1)N1CCC[C@@H]1c1[nH]ncc1Cc1ccc(Cl)cc1` [Compound 10], `CN1C(=O)COc2ccc(NC(=O)N3CCC[C@@H]3c3ncncc3Cc3ccc(Cl)cc3)cc21` [Compound 17] is lower in IC50: 500 to 5000 nM for the first, 50 to 500 nM for the second.
